Test results as given in US6664246B2, “Pharmaceutical composition” (MRC Holdings PTY Limited, priority 1999, dated 2003).

Assays:
[1] = Dissolution of 1,25(OH)2D3 in iodised poppy seed oil; type: physicochemical; settings: in one ml of iodised poppy seed oil
Description: For example, 2 mg of 1,25(OH)2 D3 can be readily dissolved in one ml of iodised poppy seed oil.

[2] = test system: HepG2 cells; experiment: [3H]thymidine incorporation cell proliferation assay; type: cell-based, human
Description: (§1) Following exposure of cells to vitamin D3 dissolved in normal or lipiodol (1% v/v) containing media. [^3H]thymidine incorporation assay and the trypan blue exclusion cell count methods were used to determine cell proliferation. To do this, cells were plated in 24 well tissue culture plates at 10^4 cells per well and incubated for 24 h in an incubator at 37° C. with humidified 5% CO2 atmosphere. The, medium was replaced with one containing vitamin D3(10^−11 to 10^−7 M) dissolved in either the normal medium or first dissolved in lipiodol and then mixed thoroughly with the medium to make a final lipiodol concentration of 1% (v/v). For acute dose studies, cells were exposed to one of the two drug containing media for 24 h, which were then replaced with drug free medium for the next four days. Whilst, in chronic treatment, cells were exposed for 5 days to different concentrations of the drug dissolved in one of the media described above. The media were changed on alternate days. At the end of treatment period, cell cultures were assayed for thymidine incorporation by the addition of 0.1μ Ci of [^3H]thymidine to each well for the last 4 h of culture. The amount of radioactivity incorporated into trichloroacetic acid precipitatable material was determined using a β-scintillation counter. Results are plotted as percentage inhibition relative to control. […]

[3] = test system: HepG2 cells; experiment: Trypan blue exclusion cell count assay; type: cell-based, human
Description: as §1, with “At the end of treatment period, cell cultures were assayed for thymidine incorporation by the addition of 0.1μ Ci of [^3H]thymidine to each well for the last 4 h of culture.” left out, “counter.” for “counter. Results are plotted as percentage inhibition relative to control.”
For the cell count assay, cells were plated in six well plates at a concentration of 5×10^4 cells per well. […] At the end of the treatment period (5 days), cells were trypsinised and counted with a hemocytometer. […]

[4] = test system: HTC; experiment: Screening of rat cell lines for responsiveness to vitamin D3; type: cell-based; settings: 10^-6 M, read-out: inhibition of proliferation
From the text: (§2) 2. In order to find an appropriate cell line, which would grow in the rat tumor and also be responsive to vitamin D3, rat cell lines, Novikoff and HTC were screened for responsiveness to vitamin D3(10^−11-10^−6 M).

[5] = test system: Novikoff; experiment: as above; type: cell-based; settings: 10^-11-10^-6 M
From the text: as §2

[6] = Radiolabelled vitamin D3 levels in liver, tumor and plasma after hepatic artery injection in Novikoff tumor bearing rats; type: in vivo, Sprague-Dawley rats; settings: 1 hour post injection
Description: Male 300-350 gr. Sprague-Dawely rats were given a general anaesthetic (halothane) and a lapratomy performed. Then 5×10^6 Novikoff cells suspended in 100 μl of medium was instilled beneath the liver capsule using a 26G3/8-tuberculin needle. The abdominal incision was then closed with gut suture.
Animals were then left for 10 days with food and water available ad libitum and monitored daily to assess health and well being. After this period, animals were randomly allocated to one of the treatment groups (n=6 per group) and lapratomy was performed again. A catheter was inserted into the hepatic artery of the animal, through which radiolabelled vitamin D3 or vehicle injections were carried out. The different experimental groups treated were as follows:
After administration of the drug, the catheter was removed and the incision sutured. Animals were euthanased at 1 hour, 1, and 3 days post drug (or vehicle) administration. Just before euthanasing, 3 ml of blood was drawn through cardiac puncture from each animal.
Post mortem, the liver and the tumor of each animal was excised, weighed and frozen in the freezer until analysis. After tissue homogenization, liver, tumor or plasma was extracted with dichloromethane. The amount of hot vitamin D3 present in each sample was determined using a β-counter.

SMILES	amount readily dissolved [1] [mg]	thymidine incorporation compared to control, acute treatment ([2]; 1 day exposure to drug, then 4 days medium without drug)	thymidine incorporation versus control, chronic treatment ([2]; 5 days exposure, all concentrations (10^-11 to 10^-7 M))	cell number, acute treatment ([3]; 10^-7 M, 1 day exposure, then 4 days drug free)	cell number, chronic treatment ([3]; 5 days exposure)	inhibition at 1 µM [4] [%]	responsiveness of cell line to vitamin D3 [5]	level of radioactivity in liver, tumor and plasma [6]
C=C1/C(=C\C=C2/CCC[C@]3(C)[C@@H]([C@H](C)CCCC(C)(C)O)CC[C@@H]23)C[C@@H](O)C[C@@H]1O [1,25(OH)2 D3, 1,25-dihydroxycholecalciferol]	2							
C=C1CC[C@H](O)C/C1=C/C=C1\CCC[C@]2(C)[C@@H]([C@H](C)CCCC(C)C)CC[C@@H]12 [vitamin D3, cholecalciferol]		did not show a reduction in thymidine incorporation	significant reduction in thymidine incorporation	significant reduction in cell number	dose dependant decrease in call number	~50	non responsive	high in all three samples
